From patent US20260284153A1, “COMPOSITION COMPRISING GV1001 FOR PREVENTING OR TREATING PERIODONTAL DISEASES AND DISORDERS CAUSED BY PERIODONTAL DISEASES” (GEMVAX & KAEL CO., LTD., priority 2023, published 2026)

Assays:
[1] = system: Porphyromonas gingivalis-induced periodontitis; experiment: Periodontitis efficacy in Pg-treated, ligature-placed, high-fat-diet ApoE-/- mouse model; assay type: in vivo, ApoE−/− mice (C57BL/6 background)
Text: (§1) An animal model was created using ApoE^−/^− mice (C57BL/6 background, male, 4 weeks old).
(§2) Animal models were fed with a high-fat diet (HFD), and a 6-0 silk ligature was placed around the maxillary second molar to create a gingival pocket using the ligature placement method for 1 week, followed by treatment with Porphyromonas gingivalis (Pg) or PBS for 5 weeks.
(§3) The depth of the periodontal pocket, the expression level of inflammatory cytokines in the gingival tissue (mRNA level, IF staining), the aggregation of Porphyromonas gingivalis, Porphyromonas gingivalis LPS, Kgp and RgpB in the gingival tissue, the amount of alveolar bone loss, and the number of osteoclasts in the alveolar bone were determined. Further, the effect on osteoclastogenesis was confirmed in an in vitro test.

Raw264.7 = experiment: In vitro osteoclastogenesis of macrophage cell line induced into osteoclasts; assay type: cell-based; conditions: Raw264.7 induced into osteoclasts; FIGS. 6A to 6E
Protocol: as §3
To confirm the efficacy of GV1001 on alveolar bone loss, μCT was used to determine alveolar bone loss in a periodontitis-induced animal model (FIGS. 4A to 4C), and the number of osteoclasts in the alveolar bone was determined by TRAP staining (FIGS. 5A and 5B).

[2] = system: atherosclerosis induced by periodontitis; experiment: Periodontitis-related atherosclerosis efficacy in Pg-treated ApoE-/- mouse model; assay type: in vivo, ApoE−/− mice (C57BL/6 background); conditions: GV1001 2 mg/kg i.p., vs control
Text: as §1, §2
(§4) The expression levels of inflammatory cytokines in serum and arterial tissue, the aggregation of Porphyromonas gingivalis, Porphyromonas gingivalis LPS, Kgp and RgpB in arterial tissue, changes in cholesterol levels in serum, and lipid deposition (atherosclerosis) in the arterial wall were determined. In vitro, inhibition of EndMT and inhibition of macrophage uptake of dil-ox-LDL were evaluated. Further, the CD47 expression levels were determined in the aortic root in vivo and in vitro.

[3] = system: human umbilical vein endothelial cells (HUVECs); experiment: EndMT of HUVECs stimulated with TNF-α and Porphyromonas gingivalis LPS; assay type: cell-based; conditions: FIGS. 13A, 13B
Protocol: as §4
It is known that when endothelial cells (ECs) change their phenotype into mesenchymal cells (MCs) through endothelial-to-mesenchymal transition (EndMT), it induces various vascular diseases (atherosclerosis, pulmonary hypertension, fibrosis, etc.). TNF-α is known as a cytokine involved in this process. In the present invention, it was confirmed that when human umbilical vein endothelial cells (HUVECs) were stimulated with TNF-α and Porphyromonas gingivalis LPS, ECs (marker; CD31) were decreased while MCs (marker; FSP-1) were increased due to EndMT (FIGS. 13A and 13B). • Control group: EndMT of HUVECs was confirmed to progress by TNF-α and Porphyromonas gingivalis LPS. • GV1001 administration group: The EndMT progression of HUVECs was confirmed to be inhibited by GV1001. […]

[4] = system: macrophages differentiated from THP-1 (human monocyte cell line) cells; experiment: ox-LDL uptake by macrophages differentiated from THP-1 cells; assay type: cell-based; conditions: induced by TNF-α and Porphyromonas gingivalis LPS; THP-1-derived macrophages; FIGS. 14A, 14B
Protocol: as §4
It is known that the formation of foam cells by macrophages in response to LDL and TNF-α is an important process in atherosclerosis. […] As a result, this means that the inhibition of atherogenesis by GV1001 is partly due to its inhibitory effect on foam cell formation.

[5] = system: CD47 in human coronary artery smooth muscle cells (HCASMC); experiment: CD47 expression in HCASMC treated with TNF-α and Porphyromonas gingivalis LPS; assay type: cell-based; conditions: TNF-α and Porphyromonas gingivalis LPS treatment; FIGS. 16A to 16F
Protocol: as §4
CD47, a representative anti-phagocytic factor, is known to interfere with the removal of cancer cells by macrophages, and overexpression of CD47 is known to cause atherosclerosis. In the present invention, the expression level of CD47 in the aortic root was confirmed in an animal model of periodontitis induction (FIGS. 15A and 15B). […] 2.3 Effect of GV1001 in Alzheimer's Disease Associated with Periodontitis

[6] = system: Alzheimer's disease induced by periodontitis; experiment: Periodontitis-related Alzheimer's disease efficacy in Pg-treated ApoE-/- mouse model; assay type: in vivo, ApoE−/− mice (C57BL/6 background); conditions: GV1001 2 mg/kg i.p., vs control
Text: as §1, §2
The expression levels of inflammatory cytokines, the aggregation of Porphyromonas gingivalis, Porphyromonas gingivalis LPS and Kgp, RgpB, and the accumulation of Aβ42 and p-Tau in brain tissue were confirmed.

[7] = system: gingipain (RgpA, RgpB, Kgp); experiment: In vitro expression of gingipain in Porphyromonas gingivalis; assay type: cell-based; conditions: FIG. 23
Protocol: To understand the fundamental mechanism of Porphyromonas gingivalis colony formation, and the reduction of Porphyromonas gingivalis LPS and gingipain by GV1001 in gingival tissues, arterial walls and brain, the effect of GV1001 on the expression of gingipain, which is an enzyme important for the growth and tissue invasion of Porphyromonas gingivalis, was investigated. […] Very low doses (5-30 μM) of GV1001 reduced the expression of RgpA and RgpB by approximately 5 times and the expression of Kgp by approximately 3 times, compared with the control group (Porphyromonas gingivalis 16S IRNA) (FIG. 23).

[8] = GV1001 2 mg/kg i.p., vs control, FIGS. 3A, 3B
[9] = 5-30 μM GV1001, compared with the control group (Porphyromonas gingivalis 16S IRNA)

Substance: GV1001: peptide consisting of 16 amino acids, SEQ ID NO: 1, derived from human telomerase reverse transcriptase (hTERT) (EARPALLTSRLRFIPK; UniProt O14746 611-626, looked up, fragment)
- inflammatory cytokine (IL-1β, TNF-α, IL-6) mRNA levels in periodontal tissue ([1]; GV1001 2 mg/kg i.p. 3 times/week for 10 weeks, vs periodontitis control, FIG. 1): significantly reduced
- inflammatory cytokines (IL-1β, TNF-α, IL-6, GM-CSF, VEGF, IL-17, KC) in serum ([1]; GV1001 2 mg/kg i.p., all cytokines, vs control, FIGS. 7A, 7B): significantly suppressed
- Porphyromonas gingivalis LPS in gingival tissue [1, 8]: significantly reduced
- gingipain (Kgp, RgpB) in gingival tissue [1, 8]: significantly reduced
- number of Porphyromonas gingivalis colonies in gingival tissue [1, 8]: significantly reduced
- alveolar bone loss (μCT) ([1]; GV1001 2 mg/kg i.p., vs control, FIGS. 4A to 4C): significantly reduced
- osteoclastogenesis in alveolar bone (number of osteoclasts, TRAP staining) ([1]; GV1001 2 mg/kg i.p., vs control, FIGS. 5A, 5B): significantly inhibited
- inflammatory cytokine expression in periodontal tissue by fluorescent staining ([1]; GV1001 2 mg/kg i.p., vs periodontitis control, FIGS. 2A, 2B): decrease in cytokine expression was confirmed
- osteoclastogenesis in vitro (Raw264.7): significantly inhibited
- inflammatory cytokine (IL-1β, TNF-α, IL-6) mRNA levels in arterial tissue ([2]; FIG. 8): significantly reduced
- inflammatory cytokine expression in arterial tissue by fluorescent staining ([2]; FIGS. 9A, 9B): decrease in cytokine expression was confirmed
- Porphyromonas gingivalis LPS in the arterial wall ([2]; FIGS. 10A, 10B): significantly reduced
- gingipain (Kgp, RgpB) in the arterial wall ([2]; FIGS. 10A, 10B): significantly reduced
- number of Porphyromonas gingivalis colonies in the arterial wall ([2]; FIGS. 10A, 10B): significantly reduced
- level of low-density lipoprotein (LDL) in serum ([2]; FIGS. 11A, 11B): significantly reduced
- level of total cholesterol (TC) in serum ([2]; FIGS. 11A, 11B): significantly reduced
- expression level of CD47 in the aortic root ([2]; FIGS. 15A, 15B): significantly reduced
- intravascular lipid deposition, wall of the aorta-iliac bifurcation ([2]; Sudan IV and Oil Red O staining, FIGS. 12A, 12B): significantly suppressed
- EndMT progression of HUVECs (CD31, FSP-1 markers) [3]: inhibited
- ox-LDL uptake [4]: significantly inhibited
- expression level of CD47 in HCASMC [5]: significantly reduced
- inflammatory cytokine (IL-1β, TNF-α, IL-6) mRNA levels in brain tissue ([6]; FIG. 17): significantly reduced
- inflammatory cytokine expression in brain tissue by fluorescent staining ([6]; FIGS. 18A to 19B): decrease in cytokine expression was confirmed
- Porphyromonas gingivalis LPS in the cerebral cortex and hippocampus ([6]; FIGS. 20A to 21B): significantly reduced
- gingipain (Kgp, RgpB) in the cerebral cortex and hippocampus ([6]; FIGS. 20A to 21B): significantly reduced
- number of Porphyromonas gingivalis colonies in the cerebral cortex and hippocampus ([6]; FIGS. 20A to 21B): significantly reduced
- accumulation of Aβ42 in the cerebral cortex and hippocampus ([6]; FIGS. 22A, 22B): significantly reduced
- accumulation of p-Tau in the cerebral cortex and hippocampus ([6]; FIGS. 22A, 22B): significantly reduced
- reduction of expression of Kgp [7, 9]: approximately 3 times
- reduction of expression of RgpA [7, 9]: approximately 5 times
- reduction of expression of RgpB [7, 9]: approximately 5 times
- expression of gingipain in vitro [7]: markedly inhibited
